Data from ChEMBL document CHEMBL4350967, “The Trifluoromethyl Group as a Bioisosteric Replacement of the Aliphatic Nitro Group in CB1 Receptor Positive Allosteric Modulators” (J Med Chem, 2019).
The source made the active and inactive calls. The rule behind the calls is not given here.

Columns and labels:
[1] = target: Cannabinoid receptor 1 (Mus musculus) (UniProt P47746); test: Positive allosteric modulation of CB1 receptor in mouse brain membranes assessed as increase in [3H]CP55940 binding at 1 uM measured after 60 mins relative to control; assay type: cell membranes
[2] = target: T1, Cannabinoid receptor 1 (Homo sapiens, UniProt P21554); test: Positive allosteric modulation of human CB1 receptor expressed in CHOK1 cells assessed as increase in CP55940-induced beta-arrestin recruitment at 1000 nM preincubated for 30 mins followed by CP55940 addition and measured after 90 to 180 mins by PathHunter assay relative to CP55940; assay type: cell-based
[3] = target: T1, Cannabinoid receptor 1; test: Positive allosteric modulation of human CB1 receptor expressed in CHOK1 cells assessed as increase in CP55940-induced beta-arrestin recruitment preincubated for 30 mins followed by CP55940 addition and measured after 90 to 180 mins by PathHunter assay relative to CP55940; assay type: cell-based
[4] = target: T1, Cannabinoid receptor 1; test: Positive allosteric modulation of human Gi/Go-coupled CB1 receptor expressed in CHOK1 cells assessed as increase in CP55940-induced inhibition of forskolin-stimulated cAMP production preincubated for 30 mins followed by CP55940 addition and measured after 30 to 60 mins by Hit-hunter assay relative to CP55940; assay type: functional, cell-based
[5] = tested on: Mus musculus; test: Psychoactive effect in C57BL/6J mouse assessed as change in immobility time at 40 mg/kg, ip measured after 30 mins by catalepsy bar test; assay type: ADME, organism-based; conditions: in vivo, 0.5 h
[6] = tested on: Mus musculus; test: Psychoactive effect in C57BL/6J mouse assessed as antinociceptive effect at 40 mg/kg, ip measured after 30 mins by warm water tail withdrawal assay; assay type: ADME, organism-based; conditions: in vivo, 0.5 h
[7] = tested on: Mus musculus; test: Antiallodynic activity in C57BL/6J mouse model of CCI-induced neuropathic pain assessed as reduction in mechanical sensitivity in ipsilateral paw at 40 mg/kg, ip by Von frey filament test; assay type: functional, organism-based; conditions: TDE = time-dependent effect
[8] = target: T1, Cannabinoid receptor 1; test: Agonist activity at human CB1 receptor expressed in CHOK1 cells assessed as induction of beta-arrestin recruitment measured after 30 mins by PathHunter assay; assay type: cell-based
[9] = target: T1, Cannabinoid receptor 1; test: Positive allosteric modulation of human CB1 receptor expressed in CHOK1 cells assessed as increase in CP55940-induced beta-arrestin recruitment preincubated for 30 mins followed by CP55940 addition and measured after 90 to 180 mins by PathHunter assay; assay type: cell-based
[10] = tested on: Mus musculus; test: Psychoactive effect in C57BL/6J mouse assessed as hypothermia by measuring change in rectal temperature at 40 mg/kg, ip measured after 30 mins; assay type: ADME, organism-based; conditions: in vivo, 0.5 h
[11] = tested on: Mus musculus; test: Psychoactive effect in C57BL/6J mouse assessed as effect on locomotor activity by measuring change in distance travelled at 40 mg/kg, ip measured after 30 mins; assay type: ADME, organism-based; conditions: in vivo, 0.5 h
[12] = tested on: Mus musculus; test: Enhancement of CP55940-induced antinociceptive activity in C57BL/6J mouse assessed as increase in tail withdrawal latency at 40 mg/kg, ip pretreated for 15 mins followed by CP55940 addition and measured after 30 mins by warm water tail withdrawal assay; assay type: functional, organism-based
[13] = tested on: Mus musculus; test: Psychoactive effect in C57BL/6J mouse assessed as effect on locomotor activity by measuring change in immobility time at 40 mg/kg, ip measured after 30 mins; assay type: ADME, organism-based; conditions: in vivo, 0.5 h
[14] = tested on: Mus musculus; test: Antiallodynic activity in C57BL/6J mouse model of CCI-induced neuropathic pain assessed as reduction in mechanical sensitivity in contralateral paw at 40 mg/kg, ip by Von frey filament test; assay type: functional, organism-based; conditions: TDE = time-dependent effect
[15] = Half life in human liver microsomes at 3 uM in presence of NADPH by LC-MS/MS analysis; assay type: ADME, Microsome
[16] = target: T1, Cannabinoid receptor 1; test: Agonist activity at human Gi/Go-coupled CB1 receptor expressed in CHOK1 cells assessed as inhibition of forskolin-stimulated cAMP production measured after 30 mins by Hit-hunter assay
[17] = Half life in mouse liver microsomes at 3 uM in presence of NADPH by LC-MS/MS analysis; assay type: ADME, Microsome
[18] = target: T1, Cannabinoid receptor 1; test: Agonist activity at human Gi/Go-coupled CB1 receptor expressed in CHOK1 cells assessed as inhibition of forskolin-stimulated cAMP production measured after 30 mins by Hit-hunter assay relative to CP55940; assay type: cell-based; conditions: 0.5 h
[19] = target: T1, Cannabinoid receptor 1
[20] = Half life in rat liver microsomes at 3 uM in presence of NADPH by LC-MS/MS analysis; assay type: ADME, Microsome
[21] = target: T1, Cannabinoid receptor 1; test: Positive allosteric modulation of human CB1 receptor expressed in CHOK1 cells assessed as increase in CP55940-induced beta-arrestin recruitment at 500 nM preincubated for 30 mins followed by CP55940 addition and measured after 90 to 180 mins by PathHunter assay relative to CP55940; assay type: cell-based
[22] = target: T1, Cannabinoid receptor 1; test: Positive allosteric modulation of human CB1 receptor expressed in CHOK1 cells assessed as increase in CP55940-induced beta-arrestin recruitment at 300 nM preincubated for 30 mins followed by CP55940 addition and measured after 90 to 180 mins by PathHunter assay relative to CP55940; assay type: cell-based

Sequence of Cannabinoid receptor 1 (Mus musculus) (P47746 whole entry): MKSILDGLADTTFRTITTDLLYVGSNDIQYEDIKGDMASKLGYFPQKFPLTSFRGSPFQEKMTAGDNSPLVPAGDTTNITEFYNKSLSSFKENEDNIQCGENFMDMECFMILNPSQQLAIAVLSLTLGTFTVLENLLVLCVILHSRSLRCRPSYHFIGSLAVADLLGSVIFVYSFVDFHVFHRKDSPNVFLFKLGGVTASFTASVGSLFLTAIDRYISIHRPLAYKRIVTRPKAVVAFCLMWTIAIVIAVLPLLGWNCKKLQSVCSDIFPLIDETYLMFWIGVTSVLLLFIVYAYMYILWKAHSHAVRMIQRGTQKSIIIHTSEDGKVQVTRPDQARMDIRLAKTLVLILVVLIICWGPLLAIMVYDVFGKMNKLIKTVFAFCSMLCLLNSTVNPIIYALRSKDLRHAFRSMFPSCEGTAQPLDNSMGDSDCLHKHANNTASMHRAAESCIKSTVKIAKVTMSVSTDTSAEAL
T1 sequence (P21554 whole entry): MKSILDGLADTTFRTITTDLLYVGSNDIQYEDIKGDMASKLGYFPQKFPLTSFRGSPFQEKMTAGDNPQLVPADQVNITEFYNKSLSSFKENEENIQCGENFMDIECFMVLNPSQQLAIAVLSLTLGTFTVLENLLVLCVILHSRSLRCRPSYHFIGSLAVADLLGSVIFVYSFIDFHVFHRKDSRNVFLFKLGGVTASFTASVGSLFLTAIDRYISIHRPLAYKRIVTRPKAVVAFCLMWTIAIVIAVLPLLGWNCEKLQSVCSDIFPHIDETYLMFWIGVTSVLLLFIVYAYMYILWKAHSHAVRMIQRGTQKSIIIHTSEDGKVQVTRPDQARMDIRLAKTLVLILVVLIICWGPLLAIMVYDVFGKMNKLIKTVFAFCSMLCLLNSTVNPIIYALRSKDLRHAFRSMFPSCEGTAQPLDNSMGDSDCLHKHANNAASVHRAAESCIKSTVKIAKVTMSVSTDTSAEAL

Row | Structure (SMILES) | Activity [1] [%] | Emax [3] [%] | Emax [4] [%] | EC50 [8] [nM] | EC50 [9] [nM] | EC50 [16] [nM] | Emax ([18]; read-out: Emax) [%] | EC50 [19] [nM] | Activity [21] [%] | also measured
1 | N#Cc1ccc2c(C(C[N+](=O)[O-])c3cccs3)c(-c3ccccc3)[nH]c2c1 (single isomer, unassigned; (-)) [listing 1 of 2 here] | 108 | 117 | 99 |  |  |  |  |  |  | Activity [2]: > 50%
2 | N#Cc1ccc2c(C(CC(F)(F)F)c3cccs3)c(-c3ccccc3)[nH]c2c1 (racemic) |  |  |  | 647 | 177 |  |  |  |  | Activity [5]: Non-Toxic; Activity [6]: Non-Toxic; Activity [7]: Tde; Activity [10]: Non-Toxic; Activity [11]: Non-Toxic; Activity [12]: Active; Activity [13]: Non-Toxic; Activity [14]: Tde
3 | N#Cc1ccc2c(C(C[N+](=O)[O-])c3cccs3)c(-c3ccccc3)[nH]c2c1 (single isomer, unassigned; (+)) [listing 1 of 2 here] | 99 | 51 | 102 |  |  |  |  |  |  | Activity [2]: > 50%
4 | N#Cc1ccc2c([C@@H](CC(F)(F)F)c3cccs3)c(-c3ccccc3)[nH]c2c1 |  |  |  | 828 | 363 | 29 | 84 | 17 |  | t1/2 [15]: 72.3 min; t1/2 [17]: 26.5 min; t1/2 [20]: 34.9 min
5 | Cc1ccc2c(C(CC(F)(F)F)c3ccccc3)c(-c3ccccc3)[nH]c2c1 (racemic) |  |  |  |  |  |  |  |  | > 50 | Activity [22]: 50 to 100%
6 | Cc1ccc2c(C(C[N+](=O)[O-])c3cccs3)c(-c3ccccc3)[nH]c2c1 (racemic) | 127 | 106 | 98 | 777 | 283 | 32 | 94 | 18 | > 50 | t1/2 [15]: 41.2 min; Activity [5]: Non-Toxic; Activity [6]: Non-Toxic; Activity [10]: Non-Toxic; t1/2 [17]: 10.4 min; Activity [11]: Non-Toxic; t1/2 [20]: 6.4 min; Activity [13]: Non-Toxic
7 | Cc1ccc2c(C(C(=O)C(F)(F)F)c3ccccc3)c(-c3ccccc3)[nH]c2c1 (racemic) |  |  |  |  |  |  |  |  | > 50 | Activity [22]: 50 to 100%
8 | N#Cc1ccc2c(C(C[N+](=O)[O-])c3cccs3)c(-c3ccccc3)[nH]c2c1 (single isomer, unassigned; (-)) [listing 2 of 2 here] |  |  |  | > 10000 | 664 | 46 |  | 36 |  | Emax [18]: 97%
9 | N#Cc1ccc2c(C(C[N+](=O)[O-])c3cccs3)c(-c3ccccc3)[nH]c2c1 (single isomer, unassigned; (+)) [listing 2 of 2 here] |  |  |  | > 10000 | 863 | 251 | 96 | 181 |  | 
